Our source for the Ki values is patent publication US8710065B2, “Tricyclic inhibitors of kinases” (AbbVie Inc., priority 2011, dated 2014).

Some results are limits rather than exact numbers.

The Ki is a measure of affinity in units of concentration, obtained from inhibition or displacement.

In this assay the target is T1, GST-tagged-Wee1 kinase (Homo sapiens, UniProt P30291).
T1 construct: purchased Carnabio (Carna Biosciences) 05-177
T1 sequence (P30291 whole entry): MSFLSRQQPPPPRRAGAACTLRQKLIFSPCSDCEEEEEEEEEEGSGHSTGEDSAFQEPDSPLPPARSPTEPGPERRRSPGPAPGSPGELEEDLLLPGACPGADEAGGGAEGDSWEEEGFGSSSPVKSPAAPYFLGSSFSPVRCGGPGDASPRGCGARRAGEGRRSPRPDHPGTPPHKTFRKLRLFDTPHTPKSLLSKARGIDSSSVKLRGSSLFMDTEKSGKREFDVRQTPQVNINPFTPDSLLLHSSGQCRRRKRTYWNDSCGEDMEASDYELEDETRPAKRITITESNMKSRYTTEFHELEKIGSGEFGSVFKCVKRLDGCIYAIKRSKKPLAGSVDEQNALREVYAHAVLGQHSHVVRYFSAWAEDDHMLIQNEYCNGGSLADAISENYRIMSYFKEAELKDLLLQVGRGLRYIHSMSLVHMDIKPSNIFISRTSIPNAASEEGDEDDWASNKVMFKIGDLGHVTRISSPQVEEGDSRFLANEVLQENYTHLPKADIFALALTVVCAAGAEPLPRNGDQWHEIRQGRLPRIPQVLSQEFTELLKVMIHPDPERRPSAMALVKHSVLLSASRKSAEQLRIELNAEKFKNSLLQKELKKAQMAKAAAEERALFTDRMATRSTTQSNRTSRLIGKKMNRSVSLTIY
Briefly: Wee1 time-resolved fluorescence equilibrium binding assay (displacement of Oregon Green-labeled ATP-competitive kinase probe). As to conditions: read-out: Wee-1 inhibition (Ki). In outline:
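Time-resolved fluorescence equilibrium binding with GST-Wee1, measuring displacement of a rapidly reversible Oregon Green-labelled ATP-competitive probe by competitive inhibitors; values reported as Ki.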
Consider `O=c1c2cnc(Nc3ccc(N4CCNCC4)nc3)nc2n2ccnc2n1-c1c(Cl)cccc1Cl` [Example 198, 6-(2,6-dichlorophenyl)-2-{[6-(piperazin-1-yl)pyridin-3-yl]amino}imidazo[1,2-a]pyrimido[5,4-e]pyrimidin-5(6H)-one], for which the Ki was less than 0.01 µM.

For the molecule `COc1cc(Nc2ncc3c(=O)n(-c4ccccc4Cl)c4nccn4c3n2)ccc1OCCNC(C)C` [Example 85, 6-(2-chlorophenyl)-2-({3-methoxy-4-[2-(propan-2-ylamino)ethoxy]phenyl}amino)imidazo[1,2-a]pyrimido[5,4-e]pyrimidin-5(6H)-one], the inhibition constant (Ki) is less than 0.01 µM. For `CN1C(C)(C)c2ccc(Nc3ncc4c(=O)n(-c5c(Cl)cccc5Cl)c5nccn5c4n3)cc2C1(C)C` [Example 177, 6-(2,6-dichlorophenyl)-2-[(1,1,2,3,3-pentamethyl-2,3-dihydro-1H-isoindol-5-yl)amino]imidazo[1,2-a]pyrimido[5,4-e]pyrimidin-5(6H)-one], the Ki is less than 0.01 µM.

For `CC1(C)CN(CC2CC2)Cc2cc(Nc3ncc4c(=O)n(-c5ccccc5Cl)c5nccn5c4n3)ccc21` [Example 130, 6-(2-chlorophenyl)-2-{[2-(cyclopropylmethyl)-4,4-dimethyl-1,2,3,4-tetrahydroisoquinolin-7-yl]amino}imidazo[1,2-a]pyrimido[5,4-e]pyrimidin-5(6H)-one], the Ki is less than 0.01 µM. In the case of `CN1CCN(c2ccc(Nc3ncc4c(=O)n(-c5ccccc5Cl)c5nccn5c4n3)cc2Cl)CC1` [Example 32, 2-{[3-chloro-4-(4-methylpiperazin-1-yl)phenyl]amino}-6-(2-chlorophenyl)imidazo[1,2-a]pyrimido[5,4-e]pyrimidin-5(6H)-one] it was less than 0.01 µM.

Regarding `CC1(C)CN(CC2CCN(Cc3ccccc3)CC2)Cc2cc(Nc3ncc4c(=O)n(-c5ccccc5Cl)c5nccn5c4n3)ccc21` [Example 164, 2-({2-[(1-benzylpiperidin-4-yl)methyl]-4,4-dimethyl-1,2,3,4-tetrahydroisoquinolin-7-yl}amino)-6-(2-chlorophenyl)imidazo[1,2-a]pyrimido[5,4-e]pyrimidin-5(6H)-one], the Ki was less than 0.01 µM. In the case of `CN1Cc2cc(Nc3ncc4c(=O)n(-c5ccccc5Cl)c5nccn5c4n3)ccc2C(C)(C)C1` [Example 53, 6-(2-chlorophenyl)-2-[(2,4,4-trimethyl-1,2,3,4-tetrahydroisoquinolin-7-yl)amino]imidazo[1,2-a]pyrimido[5,4-e]pyrimidin-5(6H)-one] it was less than 0.01 µM. In the case of `CN(C)C1Cc2ccc(Nc3ncc4c(=O)n(-c5c(F)cc(F)cc5Cl)c5nccn5c4n3)cc2C1` (centres unmarked) [Example 188, 6-(2-chloro-4,6-difluorophenyl)-2-{[2-(dimethylamino)-2,3-dihydro-1H-inden-5-yl]amino}imidazo[1,2-a]pyrimido[5,4-e]pyrimidin-5(6H)-one] it was less than 0.01 µM. Take `CCN1CCN(c2ccc(Nc3ncc4c(=O)n(-c5ccccc5Cl)c5nccn5c4n3)nc2)CC1` [Example 339, 6-(2-chlorophenyl)-2-{[5-(4-ethylpiperazin-1-yl)pyridin-2-yl]amino}imidazo[1,2-a]pyrimido[5,4-e]pyrimidin-5(6H)-one]: the inhibition constant Ki is greater than 0.1 µM. In the case of `CCN(CCN(C)C)c1ccc(Nc2ncc3c(=O)n(-c4ccccc4Cl)c4nccn4c3n2)cc1` [Example 262, 6-(2-chlorophenyl)-2-[(4-{[2-(dimethylamino)ethyl](ethyl)amino}phenyl)amino]imidazo[1,2-a]pyrimido[5,4-e]pyrimidin-5(6H)-one] it was less than 0.01 µM; in that of `NC(=O)C1CCCN(c2ccc(Nc3ncc4c(=O)n(-c5ccccc5Cl)c5nccn5c4n3)cc2)C1` (centres unmarked) [Example 272, 1-(4-{[6-(2-chlorophenyl)-5-oxo-5,6-dihydroimidazo[1,2-a]pyrimido[5,4-e]pyrimidin-2-yl]amino}phenyl)piperidine-3-carboxamide], 0.01 to 0.1 µM. Regarding `CN1CCN(c2ccc(Nc3ncc4c(=N)n(-c5ccccc5Cl)c5nccn5c4n3)cc2)CC1` [Example 333, 6-(2-chlorophenyl)-5-imino-N-[4-(4-methylpiperazin-1-yl)phenyl]-5,6-dihydroimidazo[1,2-a]pyrimido[5,4-e]pyrimidin-2-amine], the Ki was less than 0.01 µM.

In the case of `O=C(O[C@@H]1CCCN2CCCCC12)c1ccc(Nc2ncc3c(=O)n(-c4c(Cl)cccc4Cl)c4nccn4c3n2)cc1` (stereo partly drawn) [Example 200, (1R)-octahydro-2H-quinolizin-1-yl 4-{[6-(2,6-dichlorophenyl)-5-oxo-5,6-dihydroimidazo[1,2-a]pyrimido[5,4-e]pyrimidin-2-yl]amino}benzoate], the Ki is less than 0.01 µM.

With `O=c1c2cnc(Nc3ccc(NCCc4c[nH]cn4)cc3)nc2n2ccnc2n1-c1ccccc1Cl` [Example 268, 6-(2-chlorophenyl)-2-[(4-{[2-(1H-imidazol-4-yl)ethyl]amino}phenyl)amino]imidazo[1,2-a]pyrimido[5,4-e]pyrimidin-5(6H)-one], the Ki is less than 0.01 µM. Regarding `CC1(C)CN(C(=O)C2CC2)Cc2cc(Nc3ncc4c(=O)n(-c5c(F)cccc5Cl)c5nccn5c4n3)ccc21` [Example 311, 6-(2-chloro-6-fluorophenyl)-2-{[2-(cyclopropylcarbonyl)-4,4-dimethyl-1,2,3,4-tetrahydroisoquinolin-7-yl]amino}imidazo[1,2-a]pyrimido[5,4-e]pyrimidin-5(6H)-one], the Ki is less than 0.01 µM. Regarding `CC1(C)CN(S(C)(=O)=O)Cc2cc(Nc3ncc4c(=O)n(-c5c(F)cccc5Cl)c5nccn5c4n3)ccc21` [Example 312, 6-(2-chloro-6-fluorophenyl)-2-{[4,4-dimethyl-2-(methylsulfonyl)-1,2,3,4-tetrahydroisoquinolin-7-yl]amino}imidazo[1,2-a]pyrimido[5,4-e]pyrimidin-5(6H)-one], the Ki is less than 0.01 µM. In the case of `CN1CCN(c2ccc(Nc3ncc4c(=O)n(-c5ccccc5Cl)c5nncn5c4n3)cc2)CC1` [Example 26, 6-(2-chlorophenyl)-2-{[4-(4-methylpiperazin-1-yl)phenyl]amino}pyrimido[5,4-e][1,2,4]triazolo[4,3-a]pyrimidin-5(6H)-one], the Ki is 0.01 to 0.1 µM.

`CCc1cc(Nc2ncc3c(=O)n(-c4ccccc4Cl)c4nccn4c3n2)ccc1N1CCN(C)CC1` [Example 112, 6-(2-chlorophenyl)-2-{[3-ethyl-4-(4-methylpiperazin-1-yl)phenyl]amino}imidazo[1,2-a]pyrimido[5,4-e]pyrimidin-5(6H)-one]: the Ki is less than 0.01 µM.

As for `CN(C)[C@H]1CCN(c2ccc(Nc3ncc4c(=O)n(-c5c(Cl)cccc5Cl)c5nccn5c4n3)cc2)C1` [Example 315, 6-(2,6-dichlorophenyl)-2-({4-[(3S)-3-(dimethylamino)pyrrolidin-1-yl]phenyl}amino)imidazo[1,2-a]pyrimido[5,4-e]pyrimidin-5(6H)-one], the Ki is less than 0.01 µM. `Cc1ccc(-n2c(=O)c3cnc(Nc4ccc(N5CCN(C)CC5)cc4)nc3n3ccnc23)c(Cl)c1` [Example 40, 6-(2-chloro-4-methylphenyl)-2-{[4-(4-methylpiperazin-1-yl)phenyl]amino}imidazo[1,2-a]pyrimido[5,4-e]pyrimidin-5(6H)-one]: the Ki was less than 0.01 µM. For the molecule `CN1CCN(c2ccc(Nc3ncc4c(=O)n(-c5ccccc5Cl)c5nnnn5c4n3)cc2)CC1` [Example 28, 4-(2-chlorophenyl)-8-{[4-(4-methylpiperazin-1-yl)phenyl]amino}pyrimido[5,4-e]tetrazolo[1,5-a]pyrimidin-5(4H)-one], the Ki was 0.01 to 0.1 µM. On to `O=c1c2cnc(Nc3ccc(N4CCC(N5CCCCC5)CC4)cc3)nc2n2ccnc2n1-c1c(Cl)cccc1Cl` [Example 282, 2-{[4-(1,4′-bipiperidin-1′-yl)phenyl]amino}-6-(2,6-dichlorophenyl)imidazo[1,2-a]pyrimido[5,4-e]pyrimidin-5(6H)-one], for which the Ki was less than 0.01 µM. In the case of `O=c1c2cnc(Nc3ccc4c(c3)CN(CC(F)F)CC43CC3)nc2n2ccnc2n1-c1c(F)cccc1Cl` [Example 224, 6-(2-chloro-6-fluorophenyl)-2-{[2′-(2,2-difluoroethyl)-2′,3′-dihydro-1′H-spiro[cyclopropane-1,4′-isoquinolin]-7′-yl]amino}imidazo[1,2-a]pyrimido[5,4-e]pyrimidin-5(6H)-one] it was less than 0.01 µM. In the case of `O=c1c2cnc(Nc3ccc(Br)cc3)nc2n2ccnc2n1-c1ccccc1Cl` [Example 343, 2-[(4-bromophenyl)amino]-6-(2-chlorophenyl)imidazo[1,2-a]pyrimido[5,4-e]pyrimidin-5(6H)-one], the Ki lay in the range of 0.01 to 0.1 µM. For `CN(C)C1Cc2ccc(Nc3ncc4c(=O)n(-c5c(F)cccc5Cl)c5nccn5c4n3)cc2C1` (centres unmarked) [Example 139, 6-(2-chloro-6-fluorophenyl)-2-{[2-(dimethylamino)-2,3-dihydro-1H-inden-5-yl]amino}imidazo[1,2-a]pyrimido[5,4-e]pyrimidin-5(6H)-one], the Ki is less than 0.01 µM. On to `CC(=O)N1Cc2cc(Nc3ncc4c(=O)n(-c5ccccc5Cl)c5nccn5c4n3)ccc2C2(CC2)C1` [Example 91, 2-[(2′-acetyl-2′,3′-dihydro-1′H-spiro[cyclopropane-1,4′-isoquinolin]-7′-yl)amino]-6-(2-chlorophenyl)imidazo[1,2-a]pyrimido[5,4-e]pyrimidin-5(6H)-one], for which the Ki was less than 0.01 µM. Consider `N#CCCN(c1ccc(Nc2ncc3c(=O)n(-c4ccccc4Cl)c4nccn4c3n2)cc1)C1CC1` [Example 233, 3-[(4-{[6-(2-chlorophenyl)-5-oxo-5,6-dihydroimidazo[1,2-a]pyrimido[5,4-e]pyrimidin-2-yl]amino}phenyl)(cyclopropyl)amino]propanenitrile], for which the Ki is 0.01 to 0.1 µM. In the case of `CC(C)NCCN(c1ccc(Nc2ncc3c(=O)n(-c4c(Cl)cccc4Cl)c4nccn4c3n2)cc1)C(C)C` [Example 328, 6-(2,6-dichlorophenyl)-2-[(4-{propan-2-yl[2-(propan-2-ylamino)ethyl]amino}phenyl)amino]imidazo[1,2-a]pyrimido[5,4-e]pyrimidin-5(6H)-one], the Ki is less than 0.01 µM. As to `O=c1c2cnc(Nc3cccc(CN4CCCC4)c3)nc2n2ccnc2n1-c1ccccc1Cl` [Example 11, 6-(2-chlorophenyl)-2-{[3-(pyrrolidin-1-ylmethyl)phenyl]amino}imidazo[1,2-a]pyrimido[5,4-e]pyrimidin-5(6H)-one], the Ki is 0.01 to 0.1 µM.
